# Tests used:
# Format in all cases: in vivo
# G6Pase = assay: Semi-quantitative RT-PCR of liver mRNA: G6Pase; settings: HFD mice, 4 weeks, vs HF group
# Experimental: (§1) The following experiment was performed and approved by the guidelines of the Institutional Animal Care and Use Committee of Central Taiwan University of Science and Technology. The 4-week old male C57BL/6J mice (total amount n=63) were purchased from the National Laboratory Animal Breeding and Research Center (Taipei, Taiwan). After acclimatization for one week, all of the mice were divided randomly into the control (CON) group and the high-fat diet (HFD) group. […] After HFD exposure for 8 weeks, the HFD group was further randomly subdivided into 6 groups (n=9 per group) to receive different treatments by oral gavage once daily for four weeks and on HFD. […] The HF+B1, HF+B2, and […] are collectively termed BB-treated HFD groups in the following examples. The CON mice were administered vehicle. After dosing for 4 weeks, the mice were given no food at night and sacrificed after 12 h of fasting on the next day. All of the individual tissues were collected and weighed, and portions were instantly frozen using liquid nitrogen and kept at −80° C. for subsequent target gene analysis. Blood samples (0.8 mL) were collected for analysis of blood parameters.
# (§2) Total RNA from liver tissue of mice was isolated with a Trizol Reagent (Molecular Research Center, Inc., Cincinnati, Ohio, USA) according to the manufacturer's instructions. The integrity of the extracted total RNA was examined by 2% agarose gel electrophoresis, and the RNA concentration was determined by the ultraviolet (UV) light absorbency at 260 nm and 280 nm (Spectrophotometer U-2800A, Hitachi). The quality of the RNA was confirmed by ethidium bromide staining of 18S and 28S ribosomal RNA after electrophoresis on 2% agarose gel containing 6% formaldehyde.
# (§3) Levels of mRNA of genes of interest were quantified by semi-quantitative reverse transcription polymerase chain reaction (RT-PCR). […] PCR products were analyzed by 2% agarose gels and stained with ethidium bromide.
# DGAT2 = assay: Semi-quantitative RT-PCR of liver mRNA: DGAT2; settings: HFD mice, 4 weeks, vs HF group
# Experimental: as §1, §2, §3
# PPARα = assay: Semi-quantitative RT-PCR of liver mRNA: PPARα; settings: HFD mice, 4 weeks, vs HF group
# Experimental: as §1, §2, §3
# adiponectin = assay: Semi-quantitative RT-PCR of liver mRNA: adiponectin; settings: HFD mice; 40 mg/kg/day oral gavage, 4 weeks; vs HF group
# Experimental: as §1, with “The CON mice were administered vehicle. After dosing for 4 weeks, the mice were given no food at night and sacrificed after 12 h of fasting on the next day. All of the individual tissues were collected and weighed, and portions were instantly frozen using liquid nitrogen and kept at −80° C. for subsequent target gene analysis. Blood samples (0.8 mL) were collected for analysis of blood parameters.” left out
# as §2, with “The quality of the RNA was confirmed by ethidium bromide staining of 18S and 28S ribosomal RNA after electrophoresis on 2% agarose gel containing 6% formaldehyde.” left out
# as §3
# Akt = assay: Western blotting of phospho-Akt/total Akt in skeletal muscle and liver; settings: HFD mice, 4 weeks, vs HF group
# Experimental: The following experiment was performed and approved by the guidelines of the Institutional Animal Care and Use Committee of Central Taiwan University of Science and Technology. The 4-week old male C57BL/6J mice (total amount n=63) were purchased from the National Laboratory Animal Breeding and Research Center (Taipei, Taiwan). After acclimatization for one week, all of the mice were divided randomly into the control (CON) group and the high-fat diet (HFD) group. For the following 12 weeks, the CON group (n=9) was kept on a low-fat diet (Diet 12450B, Research Diets, Inc., New Brunswick, N.J., USA), while the HFD group (n=54) was exposed to a high-fat diet (Diet 12451, Research Diets, New Brunswick, N.J., USA). The low-fat diet was composed of protein 20%, carbohydrate 70% and fat 10%, whereas the high-fat diet was composed of protein 20%, carbohydrate 35%, and fat 45% (of total energy, % kcal). After HFD exposure for 8 weeks, the HFD group was further randomly subdivided into 6 groups (n=9 per group) to receive different treatments by oral gavage once daily for four weeks and on HFD. […] The HF+B1, HF+B2, and […] are collectively termed BB-treated HFD groups in the following examples. The CON mice were administered vehicle. After dosing for 4 weeks, the mice were given no food at night and sacrificed after 12 h of fasting on the next day. All of the individual tissues were collected and weighed, and portions were instantly frozen using liquid nitrogen and kept at −80° C. for subsequent target gene analysis. Blood samples (0.8 mL) were collected for analysis of blood parameters.
# Protein extractions and immunoblots for the determination of phospho-AMPK (Thr^172) and phospho-Akt (Ser^473) proteins in skeletal muscle and liver tissue of mice (n=9) were carried out. About 0.1 g of liver tissue and skeletal muscle was used for the homogenate samples. Samples were powdered under liquid nitrogen and homogenized for 20 seconds in 500 μL buffer containing 20 mM Tris-HCL1 (pH 7.4 at 4° C.), 2% SDS, 5 mM EDTA, 5 mM EGTA, 1 mM DTT, 100 mM NaF, 2 mM sodium vanadate, 0.5 mM phenylmethylsulfonyl fluoride, 10 μg/mL leupeptin, and […] pepstatin. The protein concentration in supernatant was determined with a BCA protein assay kit (Thermo Scientific, Rockford, Ill., USA). 20 μg of proteins were separated by electrophoresis on a polyacrylamide gel 12% (SDS-PAGE) and transferred to a nitrocellulose membrane. The membranes were blocked with 5% slim milk in Tris-buffered saline (TBS)(Amersham BioSciences, Uppsala, Sweden) containing 0.05% Tween-20 (Bio Rad, CA, USA) and incubated overnight at 4° C. with anti-phospho-AMPK (Abcam Inc., Cambridge, Mass., USA) and anti-phospho-Akt (Cell signaling Technology, Inc., Danvers, Mass., USA) rabbit polyclonal antibodies at 1:200 dilution. Subsequently, the membranes were washed three times with TBS containing 0.05% Tween-20 and incubated with secondary antibody anti-rabbit (1:1000) (Jackson ImmunoResearch Laboratories, Inc., PA, USA) for 1 hour. Immunoreactive bands were detected with ECL reagent kit (GE Healthcare BioSciences, Buckinghamshire, UK). The intensity of blotting was analyzed using Alpha Easy FC software (Alpha Innotech Corporation, Randburg, South Africa). Structural proteins GAPDH (Santa Cruz Biotechnology, CA, USA) in the samples were used as the loading control.
smiles,measurement,setting,value
"OCC1O[C@@H](O[C@@H]2Cc3c(O)cc(O)cc3O[C@@H]2c2ccc(O)c(O)c2)C(O)C(O)[C@@H]1O (single isomer, unassigned; (-)) [compound of formula I, (−)-epicatechin-3-O-β-D-allopyranoside]",liver mRNA level of G6Pase,G6Pase; 10 mg/kg/day oral gavage,significantly reduced
same,liver mRNA level of G6Pase,G6Pase; 20 mg/kg/day oral gavage,significantly reduced
same,liver mRNA level of G6Pase,G6Pase; 40 mg/kg/day oral gavage,significantly reduced
same,liver mRNA level of DGAT2,DGAT2; 10 mg/kg/day oral gavage,significantly reduced
same,liver mRNA level of DGAT2,DGAT2; 20 mg/kg/day oral gavage,significantly reduced
same,liver mRNA level of DGAT2,DGAT2; 40 mg/kg/day oral gavage,significantly reduced
same,liver PPARα mRNA level,PPARα; 10 mg/kg/day oral gavage,enhanced
same,liver PPARα mRNA level,PPARα; 20 mg/kg/day oral gavage,enhanced
same,liver PPARα mRNA level,PPARα; 40 mg/kg/day oral gavage,enhanced
same,liver adiponectin mRNA level,adiponectin,enhanced
same,expression level of phospho-Akt/total Akt,"Akt; liver, 10 mg/kg/day oral gavage",increased
same,expression level of phospho-Akt/total Akt,"Akt; liver, 20 mg/kg/day oral gavage",increased
same,expression level of phospho-Akt/total Akt,"Akt; liver, 40 mg/kg/day oral gavage",increased
same,expression level of phospho-Akt/total Akt,"Akt; skeletal muscle, 10 mg/kg/day oral gavage",increased
same,expression level of phospho-Akt/total Akt,"Akt; skeletal muscle, 20 mg/kg/day oral gavage",increased
same,expression level of phospho-Akt/total Akt,"Akt; skeletal muscle, 40 mg/kg/day oral gavage",increased

# From patent publication US9877980B2, “Method and composition for treatment or prevention of type 2 diabetes and hyperlipidemia” (Chun-Ching Shih, priority 2016, dated 2018)
